Assay results from ChEMBL document CHEMBL5321282, “Design, Synthesis, and Biological Evaluation of Esculetin-Furoxan-DEAC Ternary Hybrids for Anti-Triple Negative Breast Cancer” (J Med Chem, 2023).
Active and inactive are the calls of the source. The calls are words filed in the database; no cut-off is given here.

Experiments:
MDA-MB-231 [1] = experiment: Induction of apoptosis in human MDA-MB-231 cells assessed as necrotic cells at 10 nM incubated for 24 hrs by Annexin V-FITC/PI staining based flow cytometric analysis (reference value: 0.11%); type: functional
MDA-MB-231 [2] = experiment: Induction of cell cycle arrest in human MDA-MB-231 cells assessed as accumulation of cells at G2 phase at 10 nM measured after 24 hrs by PI staining by flow cytometric analysis (Rvb =18.1%); type: functional
MDA-MB-231 [3] = experiment: Induction of ROS production in human MDA-MB-231 cells measured after 24 hrs by DCFH-DA staining based fluorescence microscopic analysis; type: functional, cell-based; details: dose 5-20 nM
MDA-MB-231 [4] = experiment: Antiproliferative activity against human MDA-MB-231 cells assessed as effect on NO level at 25 uM incubated for 2 hrs; type: functional, cell-based
MDA-MB-231 [5] = experiment: Antiproliferative activity against human MDA-MB-231 cells assessed as effect on NO level at 20 nM measured after 24 hrs in presence of PTIO by MTT assay; type: functional, cell-based
MDA-MB-231 [6] = experiment: Induction of apoptosis in human MDA-MB-231 cells assessed as increase in activation of caspase level incubated for 8 hrs by Western blotting analysis; type: functional, cell-based; details: dose 5-20 nM
MCF7 = experiment: Antiproliferative activity against human MCF7 cells assessed as inhibition of cell growth measured after 48 hrs by MTT assay; type: functional, cell-based; details: MCF7, 48 h
MDA-MB-231 [7] = experiment: Induction of apoptosis in human MDA-MB-231 cells assessed as increase in Bad level incubated for 8 hrs by Western blotting analysis; type: functional, cell-based; details: dose 5-20 nM
MDA-MB-231 [8] = experiment: Induction of apoptosis in human MDA-MB-231 cells assessed as increase in CypD level incubated for 8 hrs by Western blotting analysis; type: functional, cell-based; details: dose 5-20 nM
MDA-MB-231 [9] = experiment: Induction of apoptosis in human MDA-MB-231 cells assessed as late apoptotic cells at 5 nM incubated for 24 hrs by Annexin V-FITC/PI staining based flow cytometric analysis (reference value: 4.90%); type: functional
MDA-MB-231 [10] = experiment: Induction of apoptosis in human MDA-MB-231 cells assessed as viable cells at 5 nM incubated for 24 hrs by Annexin V-FITC/PI staining based flow cytometric analysis (reference value: 90.1%); type: functional; details: read-out: Activity
MDA-MB-231 [11] = experiment: Induction of apoptosis in human MDA-MB-231 cells assessed as increase in cytoplasmic CytC level at 5 to 20 nM incubated for 8 hrs by Western blotting analysis; type: functional, cell-based; details: dose 5-20 nM
MDA-MB-231 [12] = experiment: Induction of apoptosis in human MDA-MB-231 cells assessed as necrotic cells at 5 nM incubated for 24 hrs by Annexin V-FITC/PI staining based flow cytometric analysis (reference value: 0.11%); type: functional
MDA-MB-231 [13] = experiment: Induction of apoptosis in human MDA-MB-231 cells assessed as early apoptotic cells at 20 nM incubated for 24 hrs by Annexin V-FITC/PI staining based flow cytometric analysis (reference value: 4.90%); type: functional
MDA-MB-231 [14] = experiment: Induction of cell cycle arrest in human MDA-MB-231 cells assessed as accumulation of cells at G2 phase at 5 nM measured after 24 hrs by PI staining by flow cytometric analysis (Rvb =18.1%); type: functional
MDA-MB-231 [15] = experiment: Induction of cell cycle arrest in human MDA-MB-231 cells assessed as accumulation of cells at G1 phase at 5 nM measured after 24 hrs by PI staining based flow cytometric analysis (Rvb =58%); type: functional
[16] = Cytotoxicity against human MCF-10A cells assessed as inhibition in cell growth measured after 48 hrs by MTT assay; type: toxicity, cell-based
MDA-MB-231 [17] = experiment: Induction of cell cycle arrest in human MDA-MB-231 cells assessed as accumulation of cells at G2 phase at 20 nM measured after 24 hrs by PI staining by flow cytometric analysis (Rvb =18.1%); type: functional
MDA-MB-231 [18] = experiment: Induction of apoptosis in human MDA-MB-231 cells assessed as early apoptotic cells at 5 nM incubated for 24 hrs by Annexin V-FITC/PI staining based flow cytometric analysis (reference value: 4.90%); type: functional
MDA-MB-231 [19] = experiment: Induction of apoptosis in human MDA-MB-231 cells assessed as viable cells at 20 nM incubated for 24 hrs by Annexin V-FITC/PI staining based flow cytometric analysis (reference value: 90.1%); type: functional; details: read-out: Activity
[20] = Selectivity index, ratio of IC50 for cytotoxicity against human L02 cells to IC50 for antiproliferative activity against human MDA-MB-231 cells; type: toxicity, cell-based; details: L02 cells versus MDA-MB-231 cells, read-out: Ratio IC50
MDA-MB-231 [21] = experiment: Induction of apoptosis in human MDA-MB-231 cells assessed as total apoptotic cells at 5 to 20 nM incubated for 24 hrs by Annexin V-FITC/PI staining based flow cytometric analysis (Rvb =10.03%); type: functional; details: dose 5-20 nM
[22] = Toxicity in BALB/C mouse xenografted with human MDA-MB-231 cells assessed as liver damage at 2.5 to 5 mg/kg, ip administered every 2 days measured after 3 weeks by H and E staining based analysis; type: organism-based; details: in vivo, 504 h, dose 2.5-5 mg/kg
[23] = Selectivity index, ratio of IC50 for cytotoxicity against human MCF-10A cells to IC50 for antiproliferative activity against human MDA-MB-231 cells; type: toxicity, cell-based; details: MCF-10A cells versus MDA-MB-231 cells, read-out: Ratio IC50
[24] = Toxicity in BALB/C mouse xenografted with human MDA-MB-231 cells assessed as lung damage at 2.5 to 5 mg/kg, ip administered every 2 days measured after 3 weeks by H and E staining based analysis; type: organism-based; details: in vivo, 504 h, dose 2.5-5 mg/kg
[25] = Drug localization in mitochondria of human MDA-MB-231 cells at 1 uM incubated for 1 hr measured after 40 mins by mito-tracker probe based confocal laser scanning microscopic analysis; type: ADME; details: mda-mb-231, 1.667 h, time 100 min
MDA-MB-231 [26] = experiment: Induction of apoptosis in human MDA-MB-231 cells assessed as increase in Bcl2 level incubated for 8 hrs by Western blotting analysis; type: functional, cell-based; details: dose 5-20 nM
MDA-MB-231 [27] = experiment: Induction of mitochondrial membrane potential depolarization in human MDA-MB-231 cells assessed as decrease in red fluorescence at 5 to 20 nM incubated for 24 hrs by JC-1 staining based inverted fluorescent microscopic analysis; type: functional, cell-based; details: dose 5-20 nM
MDA-MB-231 [28] = experiment: Induction of cell cycle arrest in human MDA-MB-231 cells assessed as accumulation of cells at S phase at 5 nM measured after 24 hrs by PI staining by flow cytometric analysis (Rvb =24.1%); type: functional
MDA-MB-231 [29] = experiment: Induction of cell cycle arrest in human MDA-MB-231 cells assessed as accumulation of cells at G1 phase at 10 nM measured after 24 hrs by PI staining based flow cytometric analysis (Rvb =58%); type: functional
MDA-MB-231 [30] = experiment: Induction of apoptosis in human MDA-MB-231 cells assessed as increase in cleaved caspase-3 level incubated for 8 hrs by Western blotting analysis; type: functional, cell-based; details: dose 5-20 nM
MDA-MB-231 [31] = experiment: Induction of apoptosis in human MDA-MB-231 cells assessed as increase in cytoplasmic SMAC level at 5 to 20 nM incubated for 8 hrs by Western blotting analysis; type: functional, cell-based; details: dose 5-20 nM
[32] = Drug localization in mitochondria of human HCT-116 cells at 1 uM incubated for 1 hr measured after 40 mins by mito-tracker probe based confocal laser scanning microscopic analysis; type: ADME; details: hct-116, 1.667 h, time 100 min

Structure (SMILES): CCN(CC)c1ccc2cc(C(=O)OCCCCCOc3cc4ccc(=O)oc4cc3OCCCCCCOc3no[n+]([O-])c3S(=O)(=O)c3ccccc3)c(=O)oc2c1
- Activity (MDA-MB-231 [1]): 0.83%
- Activity (MDA-MB-231 [2]): 13.8%
- Activity (MDA-MB-231 [3]): Dose-Dependent Effect
- Activity (MDA-MB-231 [4]): Active
- Activity (MDA-MB-231 [5]): inactive
- Activity (MDA-MB-231 [6]): Dose-Dependent Effect
- IC50 (MCF7): 2140 nM
- Activity (MDA-MB-231 [7]): Dose-Dependent Effect
- Activity (MDA-MB-231 [8]): Dose-Dependent Effect
- Activity (MDA-MB-231 [9]): 20.4%
- viability at 0.005 µM (MDA-MB-231 [10]): 67.1%
- Activity (MDA-MB-231 [11]): Active
- Activity (MDA-MB-231 [12]): 0.26%
- Activity (MDA-MB-231 [13]): 31.9%
- Activity (MDA-MB-231 [14]): 12.8%
- Activity (MDA-MB-231 [15]): 55.3%
- IC50 at 48 h [16]: > 50 µM
- Activity (MDA-MB-231 [17]): 21.4%
- Activity (MDA-MB-231 [18]): 12.2%
- viability at 0.02 µM (MDA-MB-231 [19]): 25.2%
- selectivity ratio [20]: 1490
- Activity (MDA-MB-231 [21]): 71.69%
- Activity [22]: Non-Toxic
- selectivity ratio [23]: > 6250
- Activity [24]: Non-Toxic
- Drug uptake [25]: Active
- Activity (MDA-MB-231 [26]): Dose-Dependent Effect
- Activity (MDA-MB-231 [27]): Active
- Activity (MDA-MB-231 [28]): 29.3%
- Activity (MDA-MB-231 [29]): 56%
- Activity (MDA-MB-231 [30]): Dose-Dependent Effect
- Activity (MDA-MB-231 [31]): Active
- Drug uptake [32]: Active
